Common to all, as to format: cell-based, human
For one assay, the system named is A375 cells. Description: Annexin V-positive cells, A375 cells. Particulars: UO126 10 μM or oxaliplatin 20 μM for 48 hours, compared with PLX4032 case. How it is done: The percentage of Annexin V-positive cells was measured as follows. First, FITC labeled Annexin V (manufactured by MBL, Nagoya, Japan) and Hoechst33342 were added to each cell and incubated for 40 minutes. Next, a stained state of the incubated cells was analyzed by using DAPI filter and FITC filter of an imaging cytometer, “In Cell Analyzer 2000” (manufactured by GE healthcare). Percentage (%) of […] was determined by In Cell Analyzer Workstation 3.7 (manufactured by GE healthcare). The statistical difference was determined by the Tukey's multiple comparisons of means test (**: P<0.01, *: P<0.05).
Next, the influence of knockdown of endogenous ZIC5, and PDGFD and ITGA6, which are downstream factors, on a decrease in cell proliferation by PLX4032 and induction of apoptosis was examined. […] Next, the treated cells were added to FITC labeled Annexin V (manufactured by MBL, Nagoya, Japan) and Hoechst33342 and incubated for 40 minutes. […]
(§1) The statistical difference was determined by the Tukey's multiple comparisons of means test (**: P<0.01, *: P<0.05).

The next assay relates to total STAT3 (STAT3). Description: Western blotting of total STAT3. Particulars: A375 cells; 24 hours; WP1066 0-4 μM, IL-6 0-20 ng/mL. The protocol:
(§2) A375 cells were treated in a medium in which a concentration of the Stat3 inhibitor, WP1066 (manufactured by Santa Cruz, Dallas, Tex.) was 0, 1, 1.5, 2, 2.5, 3, or 4 μM for 24 hours, and then western blotting was performed to assess the level of ZIC5, pro-PDGFD, pSTAT3, STAT3, and GAPDH. Western blotting was performed in the same manner as above except that anti-ZIC5 antibody (manufactured by Aviva systems biology), anti-PDGFD antibody (manufactured by Santa Cruz), anti-pSTAT3 antibody (manufactured by Cell Signaling), STAT3 antibody (manufactured by BD Biosciences), and anti-GAPDH antibody (manufactured by Cell Signaling) were used.
as §2, with “Interleukin-6 (IL-6)” for “the Stat3 inhibitor, WP1066”, “Novus Biologicals)” for “Santa Cruz, Dallas, Tex.)”, “10,” for “1, 1.5, 2, 2.5, 3,”, “20 ng/mL” for “4 μM”, “anti-pERK” for “anti-PDGFD”, “Cell Signaling),” for “Santa Cruz),”

Assay [1] relates to phosphorylated Stat3 (pStat3). In words: Western blotting of phosphorylated Stat3. To be noted: A375 cells; 24 hours; WP1066 0-4 μM, IL-6 0-20 ng/mL. The protocol:
as §2
as §2, with “Interleukin-6 (IL-6)” for “the Stat3 inhibitor, WP1066”, “Novus Biologicals)” for “Santa Cruz, Dallas, Tex.)”, “10,” for “1, 1.5, 2, 2.5, 3,”, “20 ng/mL” for “4 μM”, “anti-pERK” for “anti-PDGFD”, “Cell Signaling),” for “Santa Cruz),”

The subject of another assay is pro-PDGFD. In words: Western blotting of pro-PDGFD. Particulars: A375 cells; 24 hours; FAK inhibitor I 0-5 μM, WP1066 0-4 μM. The text has this:
Because phosphorylation of focal adhesion kinase (FAK), which is activated at Focal adhesion, has been associated with melanoma malignancy (refer to NPL 19), FAK change by ZIC5 was examined. Furthermore, focusing on Integrin, alpha 6 (ITGA6) and platelet-derived growth factor D (PDGFD) among the Focal adhesion-related genes in the altered genes by Zic5 knockdown, change in cells was examined. Specifically, a level of phosphorylated FAK (pFAK), total FAK (FAK), ITGA6, pro-PDGFD, and β-actin in A375 cells transfected with siZIC5 or siNeg was assessed by western blotting. Western blotting was performed in the same manner as above except that anti-pFAK antibody (manufactured by Signalway Antibody), anti-FAK antibody (manufactured by Acris), anti-β-actin antibody (manufactured by Sigma), anti-ITGA6 antibody (manufactured by GeneTex), and anti-PDGFD antibody (manufactured by Santa Cruz) were used.
The expression level of PDGFD gene and Zic5 gene in the obtained cells was measured by western blotting using GAPDH as an internal control. […]
A375 cells were treated in a medium in which a concentration of a FAK inhibitor I (manufactured by Calbiochem) was 0, 1, 2.5, or 5 μM for 24 hours, and the level of ZIC5, pro-PDGFD, pERK, and β-actin was measured by western blotting. […]

Assay [2] relates to stably Zic5 gene-expressed line (SK-MEL-28 cells). In words: Annexin V-positive cells, stably Zic5 gene-expressed line. To be noted: WP1066 10 μM for 24 hours; not shown. How it is done: PLX4032 was dissolved in DMSO to be used as a solution, and a line added to an equal amount of DMSO (DMSO treatment) was used as a control. The result of a relative cell number (n=3) in which the number of cells of the cells in which the stably Flag-expressed line was treated with PLX4032 (in the drawing, “+” on the “PLX4032” section, the same applies to the following examples), or the cells treated with DMSO (in the drawing, “−” on the “PLX4032” section, the same applies to the following examples) was set to 1 is shown in FIG. 30. The statistical difference was determined by the Tukey's multiple comparisons of means test (**: P<0.01, *: P<0.05). […]
The percentage of Annexin V-positive cells was measured as follows. […] Next, a stained state of the incubated cells was analyzed by using DAPI filter and FITC filter of an imaging cytometer, “In Cell Analyzer 2000” (manufactured by GE healthcare). Percentage (%) of […] was determined by In Cell Analyzer Workstation 3.7 (manufactured by GE healthcare). The statistical difference was determined by the Tukey's multiple comparisons of means test (**: P<0.01, *: P<0.05).
as §1

For the next assay, the system named is ZIC5. In words: Western blotting of ZIC5. To be noted: A375 cells; 24 hours; FAK inhibitor I 0-5 μM, WP1066 0-4 μM, IL-6 0-20 ng/mL. How it is done:
The expression level of PDGFD gene and Zic5 gene in the obtained cells was measured by western blotting using GAPDH as an internal control. Western blotting was performed according to a method of Kanemaru et al. (refer to NPL 13) using anti-ZIC5 antibody (manufactured by Aviva systems biology), anti-PDGFD antibody (manufactured by Santa Cruz), and anti-GAPDH antibody (manufactured by Cell Signaling).
(§3) A375 cells were treated in a medium in which a concentration of a FAK inhibitor I (manufactured by Calbiochem) was 0, 1, 2.5, or 5 μM for 24 hours, and the level of ZIC5, pro-PDGFD, pERK, and β-actin was measured by western blotting. Western blotting was performed in the same manner as above except that anti-ZIC5 antibody (manufactured by Aviva systems biology), anti-PDGFD antibody (manufactured by Santa Cruz), anti-pERK antibody (manufactured by Cell Signaling), and anti-β-actin antibody (manufactured by Sigma) were used.
A375 cells were treated in a medium in which a concentration of the Stat3 inhibitor, WP1066 (manufactured by Santa Cruz, Dallas, Tex.) was 0, 1, 1.5, 2, 2.5, 3, or 4 μM for 24 hours, and then western blotting was performed to assess the level of ZIC5, pro-PDGFD, pSTAT3, STAT3, and GAPDH. […]

Assay [3] has as its system phosphorylated ERK1/2 (Thr202/204) (pERK). Description: Western blotting of phosphorylated ERK1/2. To be noted: A375 cells; 24 hours; FAK inhibitor I 0-5 μM, IL-6 0-20 ng/mL. How it is done: Western blotting was performed in the same manner as above except that anti-pAKT antibody (manufactured by Cell Signaling), anti-AKT antibody (manufactured by Cell Signaling), anti-pERK antibody (manufactured by Cell Signaling), anti-ERK antibody (manufactured by Cell Signaling), and anti-β-actin antibody (manufactured by Sigma) were used.
vemR-1 to 3 cells and HT144 cells were treated with DMSO or PLX4032 solution (which was dissolved in DMSO to become 5 μM) for 48 hours, and the level of pAKT, AKT, pERK, ERK, and β-actin of these cells was assessed by western blotting in the same manner as Example 8.
as §3
A375 cells were treated in a medium in which a concentration of Interleukin-6 (IL-6) (manufactured by Novus Biologicals) was 0, 10, or 20 ng/mL for 24 hours, and then western blotting was performed to assess the level of ZIC5, pro-PDGFD, pSTAT3, STAT3, and GAPDH. […]

Assay [4] has as its system phosphorylated MLC2 (ppMLC2). In words: Western blotting of phosphorylated MLC2. To be noted: stably Zic5 gene-expressed line treated with ROCK inhibitor; not shown. How it is done: Myosin light chain 2 (MLC2) is known as an important factor for enhancing melanoma motility. It is known that MLC2 is activated through phosphorylation and enhances cell motility by enhancing actomyosin contraction (refer to NPLs 14 and 15). A protein level of phosphorylated MLC2 (ppMLC2), MLC2, and GAPDH of each cell was measured by western blotting. Western blotting was performed according to a method of Kanemaru et al. (refer to NPL 13) using anti-ppMLC2 antibody, anti-MLC2 antibody, and anti-GAPDH antibody (all manufactured by Cell Signaling).
Motility of melanoma cells in a case of siRNA-mediated knockdown of endogenous Zic5 gene was examined by performing Transwell Migration Assay. Specifically, SK-MEL-28 cells and A375 cells, which are melanoma cell lines, were transfected with siZIC5#1, siZIC5#2, siNeg#1, or siNeg#2 described in Table 2 in the same manner as Example 1. In the same manner as above, Transwell Migration Assay was performed with the cells transfected with each siRNA, and then the number of migrated cells was counted. […] The protein level of ppMLC2, MLC2, and GAPDH in the cells in which SK-MEL-28 cells were transfected with siRNA was measured by western blotting. The result of western blotting with SK-MEL-28 cells is shown at the bottom of FIG. 9.
The protein level of ppMLC2, MLC2, and GAPDH in each cell was measured by western blotting in the same manner as above.

The subject of assay [5] is stably Zic5 gene-expressed line (SK-MEL-28 cells). In words: Transwell Migration Assay, stably Zic5 gene-expressed line. To be noted: treated or non-treated with ROCK inhibitor. The protocol:
Specifically, the stably Zic5 gene-expressed line and the stably Flag-expressed line were seeded in a 24-well plate into which an insert with 8-μm sized pores (manufactured by BD Biosciences) was put and were cultured in RPMI 1640 medium containing 10% FBS, and then the number of migrated cells was counted.
The influence of suppressing MLC2 phosphorylation on migration ability of cells was analyzed. Specifically, Transwell Migration Assay was performed in the same manner as above with the stably Zic5 gene-expressed line and the stably Flag-expressed line in a state of being treated or non-treated with a ROCK inhibitor (Y27632), and then the number of migrated cells was counted.
The number of migrated cells was normalized to a total number of viable cells. A relative cell number (n=3) in which the number of migrated cells transfected with siNeg#1 of each cell was set to 1 is shown in FIG. 29. The statistical difference was determined by the Tukey's multiple comparisons of means test (**: P<0.01, *: P<0.05).

Consider `O=C1[O][Pt]2([NH][C@@H]3CCCC[C@H]3[NH]2)[O]C1=O` [oxaliplatin], for which the “percentage of Annexin V-positive cells, drug treatment of siZIC5- vs siNeg-transfected cells” value with A375 cells is listed as “the same results were obtained”.
Regarding `C[C@H](NC(=O)/C(C#N)=C/c1cccc(Br)n1)c1ccccc1` [WP1066, reference compound], in the assay with total STAT3 (STAT3), the “level of STAT3” value is listed as “not changed”. The “expression level of pSTAT3” value in assay [1] is listed as “decreased in accordance with a concentration of the Stat3 inhibitor”. The “expression level of pro-PDGFD” value with pro-PDGFD is “decreased in accordance with a concentration of the Stat3 inhibitor”. The “suppression of apoptosis by Zic5” value in assay [2] is reported as “completely suppressed”. Also, the “expression level of ZIC5” value with ZIC5 is reported as “decreased in accordance with a concentration of the Stat3 inhibitor”.
On to “IL-6: Interleukin-6 (manufactured by Novus Biologicals)”, for which the “level of pERK” value in assay [3] is given as “not changed”. In addition, the “level of STAT3” value in the assay on total STAT3 (STAT3) is listed as “not changed”. The “expression level of pSTAT3” value in assay [1] was “increased in accordance with a concentration of the IL-6”. Further, the “expression level of ZIC5” value with ZIC5 is reported as “increased in accordance with a concentration of the IL-6”.
As for `N#CC(=C(/N)Sc1ccccc1N)/C(C#N)=C(/N)Sc1ccccc1N` [UO126], the “percentage of Annexin V-positive cells, drug treatment of siZIC5- vs siNeg-transfected cells” value in the assay on A375 cells is reported as “the same results were obtained”.
`C[C@@H](N)[C@H]1CC[C@H](C(=O)Nc2ccncc2)CC1` [Y27632, reference compound]: the “band of ppMLC2” value in assay [4] is recorded as “hardly detected”. For the same compound, in [5], the “increase of migrated cells by Zic5 gene overexpression” value is recorded as “partially suppressed”.

These data come from patent publication US10669545B2, “Tumor cell malignant transformation suppressor and anti-tumor agent” (JAPAN SCIENCE AND TECHNOLOGY AGENCY, priority 2015, dated 2020).
